Patent publication US20210324441A1, “CHARACTERIZATION OF MICROORGANISMS VIA MALDI-TOF” (BIOMÉRIEUX, priority 2014, published 2021)

What was measured:
[1] = system: K. pneumoniae; experiment: MIC of ampicillin for the bacterial strain; assay type: cell-based; conditions: strain 1, K. pneumoniae, resistant
[2] = system: E. coli; experiment: MIC of ampicillin for the bacterial strain; assay type: cell-based
[3] = Negative control without enzyme: ampicillin dried on MALDI plate, MALDI-TOF detection; assay type: physicochemical; conditions: water with 0.76 mM zinc, no enzyme, ambient temperature, one hour
Experimental: In the present experiment, an analysis zone of a MALDI plate (VITEK® MS disposable slides TO-430) was treated with a beta-lactam antibiotic and tested in order to evaluate the capacity of the antibiotics to be cleaved by a beta-lactamase. Ampicillin was used as the model for the antibiotic beta-lactam. The experiment was carried out by implementing the steps below: • 2 μL of a solution of ampicillin in a concentration of 10 mg/mL in water was deposited in the form of a drop onto an analysis zone of the MALDI plate. The plate was incubated at 37° C., until the drop had dried out completely. • 2 μL of a recombinant beta-lactamase (β-lactamase from Pseudomonas aeruginosa, Sigma-Aldrich batch L6170-550UN. CAS: 9073-60-3). • 2 μL of recombinant β-lactamase at a concentration of 1 mg/mL in water was used diluted in water supplemented with zinc in the form of zinc sulfate (0.76 millimoles (mM)) to promote enzymatic activity, was deposited onto the dry analysis zone carrying ampicillin. […]

For `CC1(C)S[C@@H]2[C@H](NC(=O)[C@H](N)c3ccccc3)C(=O)N2[C@H]1C(=O)O` [ampicillin], which “MIC of ampicillin (minimum inhibiting concentration of the strain)” value [1] is on record?
Its value is 32.

What about the “MIC of ampicillin (minimum inhibiting concentration of the strain)” value ([2]; strain 2, E. coli, resistant, penicillinase) of the same compound?
Its value is greater than 128.

And the “MIC of ampicillin (minimum inhibiting concentration of the strain)” value ([2]; strain 3, E. coli, resistant, TEM β-lactamase)?
Its value is greater than 128.

And the “MIC of ampicillin (minimum inhibiting concentration of the strain)” value ([2]; strain 4, E. coli ATCC 25922, sensitive, no β-lactamase)?
The value was 4.

And the “spontaneous hydrolysis on the plate” value [3]?
The value was “A little spontaneous hydrolysis”.
